Patent publication US20030203963A1, “Antimicrobial agent” (priority 2001, published 2003)

Experiments:
[1] = system: S cerevisiae H78; test: Bioscreen growth inhibition test; type: cell-based, Saccharomyces cerevisiae; settings: APP 213, BS010420, 72 h/25° C.
Description: (§1) For broth cultures and Bioscreen testing most bacteria were grown in Brain Heart Infusion (BHI, Oxoid, pH 7.4). Lactobacillus sake A10 was grown in de Man, Rogosa, Sharpe medium ([…], Oxoid). Yeasts were grown in Sabouraud Liquid medium (SLM, Oxoid). Most bacteria were cultured at 30° C. Lactic acid bacteria were grown on solid medium in enriched CO2 atmosphere. Clostridium species were grown in Reinforced Clostridial Medium (RCM) at 37° C. anaerobically. Brochothrix thermosphacta fungi and yeasts were grown at 25° C. Fungi were cultured on Malt Extract Agar (MEA, Oxoid).
(§2) An automated Microbiology Reader Bioscreen C was used to measure growth curves of the strains in the presence and absence of APP. The Bioscreen C measures the development of turbidity (i.e. growth) kinetically by vertical photometry in 200 wells of a honeycomb microtitre plate, simultaneously. The system consists of a Bioscreen C analyser, which is an incubator and measurement unit, integrated with a PC, software (BioLink v 5.30), printer and a ‘Honeycomb 2’ cuvette multiwell plate. Growth curve data can be analysed within the BioLink software or exported to programs such as Excel.
(§3) Broth culture media were dispensed in 270 μl volumes into the wells as directed. Serial dilutions of a filter-sterilised APP stock solution were then dispensed into the same wells, as appropriate. The wells were inoculated with 30 μl of an appropriately diluted overnight broth culture or spore suspension, to give a final inoculum level of […]. The tests were incubated in the Bioscreen C for either 24 h at 30° C., or 72 h at 25° C. (depending on the micro-organism under investigation) with readings taken every 20 minutes after the trays were shaken. After the incubation period was complete the data were exported to Excel for analysis.

[2] = system: S. cerevisiae ATCC9763; test: Bioscreen growth inhibition test; type: cell-based, Saccharomyces cerevisiae; settings: APP 213, BS010420, 72 h/25° C.
Description: as §1, §2, §3

[3] = system: B. cereus 204; test: Chicken soup trial at 8° C.; type: cell-based, Bacillus cereus; settings: chicken soup at 8° C.
Excerpt: (§4) A local supermarket brand of cream of chicken soup was used as a model food system. 600 g packs were purchased from the local supermarket. This was a ‘fresh home-made type’ of soup that was stored in the chill cabinet, with a short shelf life. It was chosen because it is a rich, nutritious food system containing a range of food components including meat, dairy and vegetable.
(§5) Ingredients were labelled as: chicken stock (water, duck fat, chicken, salt, flavourings, yeast extracts, pork gelatine, glucose syrup, vegetable concentrate, milk protein, sugar, malto-dextrin, vegetable oil, citric acid, lactose, chicken fat), ilk, chicken (9%), cream (8%), onion, potato, vegetable oil, modified maize starch, wheat flour, lemon juice, salt, white pepper. pH 5.912. Protein: 3.3%; carbohydrate: 4.7%; fat: 7.2%; fibre: 0.2%; sodium: 0.1%
(§6) For the test the soup was mixed 2:1 in water (to facilitate sampling and mixing) and sterilised by autoclaving at 121° C. for 15 minutes. For each experiment the pH of the soup was recorded; this was between pH 5.79-5.88.
(§7) For TCS010412/8 (which was incubated at 8° C.), APP batch number APP20010213 (concentration 169 mg APP/ml) was used to prepare tests containing 0, 2000 or 4000 ppm APP. 5 g of filter-sterilised APP stock solution was added to 94 g of soup, mixed and then 1 ml of a diluted inoculum suspension (cells or spores as appropriate) was added to give a test inoculum level of 10^3 cfu/g. The soup mixture was shaken vigorously to ensure homogeneous distribution of the APP and micro-organisms. The tests were tested by viable count and then incubated at 8° C. and tested on a twice-weekly basis.
(§8) For TCS010521/8 (incubated at 8° C.), samples were prepared in 27.8 g quantities. 1.5 g of an APP stock solution was added, and the tests inoculated with 0.3 ml of a suitably diluted cell or spore suspension to give a final inoculum of ca. 10^3 cfu/g. APP was tested at 0, 500 and 1000 ppm, and batch number APP20010213 (at 169 mg/ml) was used. The tests were sampled by viable count and then incubated at 8° C. and tested on a twice-weekly basis.

[4] = system: L. monocytogenes 272; test: Chicken soup trial at 8° C.; type: cell-based, Listeria monocytogenes; settings: chicken soup at 8° C.
Excerpt: as §4, §5, §6, §7, §8

[5] = system: Salmonella Typhimurium S29; test: Chicken soup trial at 20° C.; type: cell-based; settings: chicken soup at 20° C., TCSM010430, APP20010213
Excerpt: as §4, §5, §6
For TCS010430/20 (incubated at 20° C.) samples were prepared in 18.8 g quantities, to which 1 g of a suitable filter-sterilised APP stock solution was added and an appropriately diluted 0.2 ml inoculum. Great care was again taken to ensure homogeneous distribution of the APP and micro-organisms. This test was sampled by viable count test on a daily basis.

[6] = system: L. monocytogenes 272; test: Test in cooked minced chicken slurry; type: cell-based, Listeria monocytogenes
Description: 1 kg of minced chicken (mainly lean meat) was purchased from the local butcher. This was mixed with 1 litre of BHI, mixed and dispensed as 100 g samples prior to autoclaving. When still warm, the meat was re-mixed thoroughly. When cooked, the meat was inoculated with 1 ml of 10^5 spores or cells (from an overnight broth), and re-mixed. The samples were then divided into 3×25 g portions, to which 0.5 ml of filter-sterilised APP20010215 was added (as 5% or 10% stock solutions) or water. An initial viable count was taken, and the samples then incubated at 8° C. and tested twice weekly. The pH of the chicken slurry was 6.42.

[7] = Stability in water; type: physicochemical; settings: water at 24° C.
Description: Tests indicate that APP is stable in water at 24° C. for 2 weeks, but completely disappears after 2 months. […] At pH 11-12.5 APP has a half-life of 5 h. Since most food is acidic or neutral, the stability may therefore be improved by using APP in combination with an antioxidant such as those listed hereinbefore.

[8] = 2000 ppm, TCS010412, APP20010213
[9] = 4000 ppm, TCS010412, APP20010213

O=C1CC(CO)OC=C1O (stereo not shown) [APP, Ascopyrone P]
APP level causing significant inhibition [1]: 4000 | APP level causing total inhibition [1]: >4000 | APP level causing significant inhibition [2]: Enhanced growth | APP level causing total inhibition [2]: >4000 | Counts / spore kill ([3]; 500 and 1000 ppm, TCSM010521, APP215): Counts remain at approx initial level, i.e. no spore kill. | Total inhibition for ([3]; 500 ppm, TCSM010521, APP215): Total inhibition by 500 and 1000 ppm for >27 days. | Total inhibition for ([3]; 1000 ppm, TCSM010521, APP215): Total inhibition by 500 and 1000 ppm for >27 days. | Counts / spore kill ([3]; 2000 and 4000 ppm, TCS010412, APP20010213): Counts remain at initial level, i.e. no spore kill. | Total inhibition for [3, 8]: Total inhibition by 2000 and 4000 ppm for >60 days. | Total inhibition for [3, 9]: Total inhibition by 2000 and 4000 ppm for >60 days. | Effect on growth ([4]; 500 ppm, TCSM010521, APP215): No effect with 500 ppm | Effect on growth ([4]; 1000 ppm, TCSM010521, APP215): No total inhibition | Effect on growth rate ([4]; 1000 ppm, TCSM010521, APP215): slight reduction | Counts reach [4, 8]: Counts reach <105 with 2000 ppm. | Counts undetectable after [4, 8]: Counts undetectable after ca 50 days at 2000 ppm | Counts undetectable after [4, 9]: Counts undetectable after 20 days at 4000 ppm | Total inhibition for [4, 9]: Total inhibition by 4000 ppm for >60 days. | Effect on growth ([5]; 1000 ppm): No effect with 1000 ppm | Final count ([5]; 2000 ppm (cf 10^9 without)): 10^6 | Counts drop after ([5]; 2000 ppm): 8 days | Counts undetectable by ([5]; 2000 ppm): counts drop, undetectable by 18 d. | Effect on growth ([6]; 2000 ppm, minced chicken slurry at 8° C., pH 6.42, TCC010704): Slight inhibition by 2000 ppm only | No inhibition (effect on growth of target organism by 2000 ppm APP) ([6]; Cooked minced chicken slurry at 8° C. pH 6.42, organism printed in brackets): (L. monocytogenes) | Completely disappears after [7]: 2 months | Stable in water for [7]: 2 weeks
